Several values for one entry are separate records, joined by “and”; a condition that tells them apart may be missing. Identical values can stand only once. Inconclusive results and toxic doses are left out.
Tested on: P388 leukemia ip, CD2F1 mice, survival T/C
Test: NCI In Vivo Anticancer Drug Screen. Data for tumor model P388 Leukemia (intraperitoneal) in CD2F1 (CDF1) mice
Conditions: endpoint: median survival time, higher = longer survival
Outline: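 Mice carrying the transplanted tumor received test compound or vehicle. Survival was recorded in each group, and the value is the treated-group measurement divided by that of the vehicle-treated control group.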

[1] = dose: 50.0 mg/kg/injection, schedule: Q01DX009 (ip), vehicle: Klucel (hydroxypropylcellulose) (HPC)
[2] = dose: 100.0 mg/kg/injection, schedule: Q01DX009 (ip), vehicle: Klucel (hydroxypropylcellulose) (HPC)
[3] = dose: 200.0 mg/kg/injection, schedule: Q01DX009 (ip), vehicle: Klucel (hydroxypropylcellulose) (HPC)
[4] = dose: 50.0 mg/kg/injection, schedule: Q01DX009 (ip), vehicle: saline
[5] = dose: 100.0 mg/kg/injection, schedule: Q01DX009 (ip), vehicle: saline
[6] = dose: 200.0 mg/kg/injection, schedule: Q01DX009 (ip), vehicle: saline
[7] = dose: 6.25 mg/kg/injection, schedule: Q01DX009 (ip), vehicle: saline with Tween-80
[8] = dose: 12.5 mg/kg/injection, schedule: Q01DX009 (ip), vehicle: saline with Tween-80
[9] = dose: 100.0 mg/kg/injection, schedule: Q01DX009 (ip), vehicle: saline with Tween-80
[10] = dose: 200.0 mg/kg/injection, schedule: Q01DX009 (ip), vehicle: saline with Tween-80
[11] = dose: 50.0 mg/kg/injection, schedule: Q01DX009 (ip), vehicle: saline with Tween-80
[12] = dose: 50.0 mg/kg/injection, schedule: Q01DX005 (ip), vehicle: Klucel (hydroxypropylcellulose) (HPC)
[13] = dose: 100.0 mg/kg/injection, schedule: Q01DX005 (ip), vehicle: Klucel (hydroxypropylcellulose) (HPC)
[14] = dose: 200.0 mg/kg/injection, schedule: Q01DX005 (ip), vehicle: Klucel (hydroxypropylcellulose) (HPC)
[15] = dose: 12.5 mg/kg/injection, schedule: Q01DX005 (ip), vehicle: saline
[16] = dose: 25.0 mg/kg/injection, schedule: Q01DX005 (ip), vehicle: saline
[17] = dose: 50.0 mg/kg/injection, schedule: Q01DX005 (ip), vehicle: saline
[18] = dose: 60.0 mg/kg/injection, schedule: Q01DX005 (ip), vehicle: saline
[19] = dose: 120.0 mg/kg/injection, schedule: Q01DX005 (ip), vehicle: saline

Structure (SMILES): C=CCn1c(NC2=C(Cl)C(=O)c3ccccc3C2=O)cc(=O)[nH]c1=O
- T/C (dose: 12.5 mg/kg/injection, schedule: Q01DX009 (ip), vehicle: Klucel (hydroxypropylcellulose) (HPC)): 104 % of control
- T/C (dose: 25.0 mg/kg/injection, schedule: Q01DX009 (ip), vehicle: Klucel (hydroxypropylcellulose) (HPC)): 98 % of control
- T/C [1]: 99 % of control and 98 % of control

Structure (SMILES): CCCCCC(=O)C(=O)c1ccc(O)cc1O
- T/C [1]: 89 % of control
- T/C [2]: 109 % of control
- T/C [3]: 100 % of control

Structure (SMILES): Cc1ccc(C2OC(c3ccc(C)cc3)C(C)C(=O)C2C)cc1 (centres undefined)
- T/C [4]: 90 % of control
- T/C [5]: 94 % of control
- T/C [6]: 99 % of control

Structure (SMILES): CCOC(=O)CCC[n+]1cccc(C#N)c1
- T/C (dose: 31.25 mg/kg/injection, schedule: Q01DX005 (ip), vehicle: Klucel (hydroxypropylcellulose) (HPC)): 101 % of control
- T/C (dose: 62.5 mg/kg/injection, schedule: Q01DX005 (ip), vehicle: Klucel (hydroxypropylcellulose) (HPC)): 103 % of control
- T/C (dose: 125.0 mg/kg/injection, schedule: Q01DX005 (ip), vehicle: Klucel (hydroxypropylcellulose) (HPC)): 96 % of control

Structure (SMILES): O=[N+]([O-])c1ccc(S(=O)(=O)Cc2ccccc2)c2nonc12
- T/C (dose: 3.12 mg/kg/injection, schedule: Q01DX009 (ip), vehicle: saline with Tween-80): 99 % of control
- T/C [7]: 107 % of control
- T/C [8]: 100 % of control

Structure (SMILES): O=[N+]([O-])c1ccccc1CSc1ncnc2nc[nH]c12
- T/C (dose: 50.0 mg/kg/injection, schedule: Q04DX003 (ip), vehicle: saline with Tween-80): 95 % of control
- T/C [9]: 90 % of control
- T/C (dose: 100.0 mg/kg/injection, schedule: Q04DX003 (ip), vehicle: saline with Tween-80): 109 % of control
- T/C [10]: 100 % of control
- T/C (dose: 200.0 mg/kg/injection, schedule: Q04DX003 (ip), vehicle: saline with Tween-80): 104 % of control
- T/C (dose: 400.0 mg/kg/injection, schedule: Q01DX009 (ip), vehicle: saline with Tween-80): 118 % of control

Structure (SMILES): O=C1C2(Cl)C3CCC4C5CCC3C1(Cl)C5(Cl)C42Cl (centres undefined)
- T/C (dose: 100.0 mg/kg/injection, schedule: Q04DX002 (ip), vehicle: saline with Tween-80): 107 % of control
- T/C (dose: 200.0 mg/kg/injection, schedule: Q04DX002 (ip), vehicle: saline with Tween-80): 100 % of control

Structure (SMILES): COc1cc(-c2cc(=O)c3c(O)cc(O)cc3o2)cc(OC)c1O
- T/C (dose: 5.0 mg/kg/injection, schedule: Q01DX009 (ip), vehicle: Klucel (hydroxypropylcellulose) (HPC)): 100 % of control
- T/C (dose: 10.0 mg/kg/injection, schedule: Q01DX009 (ip), vehicle: Klucel (hydroxypropylcellulose) (HPC)): 98 % of control
- T/C (dose: 20.0 mg/kg/injection, schedule: Q01DX009 (ip), vehicle: Klucel (hydroxypropylcellulose) (HPC)): 100 % of control
- T/C (dose: 40.0 mg/kg/injection, schedule: Q01DX009 (ip), vehicle: Klucel (hydroxypropylcellulose) (HPC)): 90 % of control

Structure (SMILES): Cc1cc2n(n1)C(C)(C)C(=O)Nc1ccc(Cl)cc1-2
- T/C (dose: 60.0 mg/kg/injection, schedule: Q01DX005 (ip), vehicle: Klucel (hydroxypropylcellulose) (HPC)): 96 % of control
- T/C (dose: 120.0 mg/kg/injection, schedule: Q01DX005 (ip), vehicle: Klucel (hydroxypropylcellulose) (HPC)): 96 % of control
- T/C (dose: 240.0 mg/kg/injection, schedule: Q01DX005 (ip), vehicle: Klucel (hydroxypropylcellulose) (HPC)): 93 % of control

Structure (SMILES): CCC[CH2][Sn]([CH3])([CH3])[CH2]CC[N+](C)(C)C
- T/C (dose: 12.5 mg/kg/injection, schedule: Q01DX009 (ip), vehicle: saline): 95 % of control
- T/C (dose: 25.0 mg/kg/injection, schedule: Q01DX009 (ip), vehicle: saline): 98 % of control
- T/C [4]: 96 % of control

Structure (SMILES): CCOC(=O)c1cc([N+](=O)[O-])c(C)n1C
- T/C [11]: 98 % of control
- T/C [9]: 102 % of control
- T/C [10]: 96 % of control

Structure (SMILES): CC(C)(C)OC(=O)NC(CCC(=O)O)(Cc1ccccc1)C(=O)NC(CCC(=O)O)(Cc1ccccc1)C(=O)OCc1ccccc1 (centres undefined)
- T/C (dose: 6.25 mg/kg/injection, schedule: Q01DX005 (ip), vehicle: saline with Tween-80): 98 % of control
- T/C (dose: 12.5 mg/kg/injection, schedule: Q01DX005 (ip), vehicle: saline with Tween-80): 105 % of control
- T/C (dose: 25.0 mg/kg/injection, schedule: Q01DX005 (ip), vehicle: saline with Tween-80): 88 % of control

Structure (SMILES): CCC1=C[C@@H]2C[C@](C(=O)OC)(c3cc4c(cc3OC)N(C)[C@H]3[C@@](O)(C(=O)OC)[C@H](OC(C)=O)[C@]5(CC)C=CCN6CC[C@]43[C@@H]65)c3[nH]c4ccccc4c3CCN(C1)C2=O
- T/C (dose: 4.7 mg/kg/injection, schedule: Q01DX001 (ip), vehicle: other): 113 % of control
- T/C (dose: 9.4 mg/kg/injection, schedule: Q01DX001 (ip), vehicle: other): 117 % of control
- T/C (dose: 37.5 mg/kg/injection, schedule: Q01DX001 (ip), vehicle: suspension in saline): 195 % of control

Structure (SMILES): O=C1CCCc2cc3c(nc21)C(=O)CCC3
- T/C [12]: 100 % of control
- T/C [13]: 100 % of control
- T/C [14]: 109 % of control

Structure (SMILES): CC1CCC2(OC1)OC1CC3C4CC=C5CC(O)CCC5(C)C4CCC3(C)C1C2C (centres undefined)
- T/C [12]: 100 % of control
- T/C [13]: 89 % of control
- T/C [14]: 86 % of control

Structure (SMILES): COC(=O)/C=C(/C(=O)OC)N(O)C(=O)CN1C(=O)c2ccccc2C1=O
- T/C (dose: 60.0 mg/kg/injection, schedule: Q01DX005 (ip), vehicle: saline with Tween-80): 102 % of control
- T/C (dose: 120.0 mg/kg/injection, schedule: Q01DX005 (ip), vehicle: saline with Tween-80): 100 % of control
- T/C (dose: 240.0 mg/kg/injection, schedule: Q01DX005 (ip), vehicle: saline with Tween-80): 101 % of control

Structure (SMILES): COC(=O)C1CC(C(=O)c2ccccc2)N2C=CC=C(C#N)C12 (centres undefined)
- T/C (dose: 4.38 mg/kg/injection, schedule: Q01DX005 (ip), vehicle: Klucel (hydroxypropylcellulose) (HPC)): 101 % of control
- T/C (dose: 8.75 mg/kg/injection, schedule: Q01DX005 (ip), vehicle: Klucel (hydroxypropylcellulose) (HPC)): 91 % of control
- T/C (dose: 17.5 mg/kg/injection, schedule: Q01DX005 (ip), vehicle: Klucel (hydroxypropylcellulose) (HPC)): 101 % of control

Structure (SMILES): CCN(CC)CCCCCCNc1cc(OC)c(Cl)c2cccnc12
- T/C (dose: 6.25 mg/kg/injection, schedule: Q01DX005 (ip), vehicle: saline): 102 % of control
- T/C [15]: 95 % of control
- T/C [16]: 98 % of control
- T/C [17]: 115 % of control

Structure (SMILES): COc1cc2c(cc1OC)C(CCCCCCCC1NCCc3cc(OC)c(OC)cc31)NCC2 (centres undefined)
- T/C [15]: 102 % of control
- T/C [16]: 96 % of control
- T/C [17]: 100 % of control and 101 % of control

Structure (SMILES): Cc1nn(C(=O)c2ccncc2)c(C)c1N=Nc1ccc(S(=O)(=O)Nc2ncccn2)cc1
- T/C [1]: 109 % of control
- T/C [2]: 109 % of control
- T/C [3]: 105 % of control

Structure (SMILES): CN(C)CC[Si](C)(C)N(C)C
- T/C [18]: 107 % of control
- T/C [19]: 102 % of control

Structure (SMILES): CN(C)C(=O)Nc1ccc(-c2cccnc2)cc1
- T/C [18]: 109 % of control
- T/C [19]: 107 % of control
- T/C (dose: 240.0 mg/kg/injection, schedule: Q01DX005 (ip), vehicle: saline): 93 % of control

Structure (SMILES): COc1ccc(OC)c(N2C(=O)C=C(C)C2(O)CC#N)c1 (centres undefined)
- T/C [7]: 100 % of control
- T/C [8]: 95 % of control
- T/C (dose: 25.0 mg/kg/injection, schedule: Q01DX009 (ip), vehicle: saline with Tween-80): 98 % of control
- T/C [11]: 98 % of control

Structure (SMILES): CN1C(=O)Cn2c(nn(CCN3CCOCC3)c(=O)c2=O)-c2cc(Cl)ccc21
- T/C [4]: 99 % of control
- T/C [5]: 102 % of control
- T/C [6]: 105 % of control

Structure (SMILES): CC(C)c1nc(N)nc(N)n1
- T/C [4]: 93 % of control
- T/C [6]: 90 % of control

Structure (SMILES): O=S(=O)(F)c1cccc(Cl)c1C[P+](c1ccccc1)(c1ccccc1)c1ccccc1
- T/C (dose: 15.0 mg/kg/injection, schedule: Q01DX005 (ip), vehicle: saline with Tween-80): 112 % of control
